Test results taken from ChEMBL document CHEMBL3616476, “Expanding the structural diversity of Bcr-Abl inhibitors: Hybrid molecules based on GNF-2 and Imatinib” (Bioorg Med Chem Lett, 2015).

Key:
[1] = target: Bcr/Abl fusion protein (Homo sapiens, UniProt P00519); assay: Inhibition of Bcr-Abl (unknown origin) after 1 hr by luminescence assay; format: protein assay
[2] = tested on: K562; assay: cells; conditions: Homo sapiens, K562, 48 h
[3] = target: K562 (Homo sapiens); assay: Antiproliferative activity against human K562 cells by MTT assay

Bcr/Abl fusion protein, sequence (P00519 whole entry, the tested form may be a part): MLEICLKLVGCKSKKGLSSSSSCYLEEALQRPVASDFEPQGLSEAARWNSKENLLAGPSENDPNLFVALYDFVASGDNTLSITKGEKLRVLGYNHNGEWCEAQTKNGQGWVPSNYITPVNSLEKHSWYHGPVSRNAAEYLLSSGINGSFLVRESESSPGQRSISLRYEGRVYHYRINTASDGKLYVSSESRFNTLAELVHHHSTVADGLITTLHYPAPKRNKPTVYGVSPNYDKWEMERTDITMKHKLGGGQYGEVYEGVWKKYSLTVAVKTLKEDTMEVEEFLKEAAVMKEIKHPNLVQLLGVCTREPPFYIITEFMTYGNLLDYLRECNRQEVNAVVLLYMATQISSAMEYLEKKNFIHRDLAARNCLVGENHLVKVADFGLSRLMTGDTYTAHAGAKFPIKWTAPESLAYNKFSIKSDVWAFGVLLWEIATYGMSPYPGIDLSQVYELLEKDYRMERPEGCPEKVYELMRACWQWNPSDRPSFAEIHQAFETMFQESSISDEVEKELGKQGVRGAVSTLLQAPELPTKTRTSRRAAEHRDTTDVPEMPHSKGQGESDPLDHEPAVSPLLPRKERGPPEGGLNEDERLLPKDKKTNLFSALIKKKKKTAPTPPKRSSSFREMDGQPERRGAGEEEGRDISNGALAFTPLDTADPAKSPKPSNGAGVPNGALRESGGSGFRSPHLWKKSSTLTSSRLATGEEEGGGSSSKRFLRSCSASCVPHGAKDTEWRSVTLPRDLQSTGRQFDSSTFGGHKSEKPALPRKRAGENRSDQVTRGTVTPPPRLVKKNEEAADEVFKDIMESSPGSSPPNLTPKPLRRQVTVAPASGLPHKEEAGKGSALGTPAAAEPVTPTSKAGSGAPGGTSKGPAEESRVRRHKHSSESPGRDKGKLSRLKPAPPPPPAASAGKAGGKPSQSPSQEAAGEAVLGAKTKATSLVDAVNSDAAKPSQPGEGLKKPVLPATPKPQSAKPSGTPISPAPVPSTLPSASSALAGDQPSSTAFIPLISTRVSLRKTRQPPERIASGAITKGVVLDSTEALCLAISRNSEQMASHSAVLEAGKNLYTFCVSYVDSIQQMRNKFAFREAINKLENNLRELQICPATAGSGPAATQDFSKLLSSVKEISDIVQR
Bcr/Abl fusion protein, sequence (P11274 whole entry, further chain, the tested form may be a part): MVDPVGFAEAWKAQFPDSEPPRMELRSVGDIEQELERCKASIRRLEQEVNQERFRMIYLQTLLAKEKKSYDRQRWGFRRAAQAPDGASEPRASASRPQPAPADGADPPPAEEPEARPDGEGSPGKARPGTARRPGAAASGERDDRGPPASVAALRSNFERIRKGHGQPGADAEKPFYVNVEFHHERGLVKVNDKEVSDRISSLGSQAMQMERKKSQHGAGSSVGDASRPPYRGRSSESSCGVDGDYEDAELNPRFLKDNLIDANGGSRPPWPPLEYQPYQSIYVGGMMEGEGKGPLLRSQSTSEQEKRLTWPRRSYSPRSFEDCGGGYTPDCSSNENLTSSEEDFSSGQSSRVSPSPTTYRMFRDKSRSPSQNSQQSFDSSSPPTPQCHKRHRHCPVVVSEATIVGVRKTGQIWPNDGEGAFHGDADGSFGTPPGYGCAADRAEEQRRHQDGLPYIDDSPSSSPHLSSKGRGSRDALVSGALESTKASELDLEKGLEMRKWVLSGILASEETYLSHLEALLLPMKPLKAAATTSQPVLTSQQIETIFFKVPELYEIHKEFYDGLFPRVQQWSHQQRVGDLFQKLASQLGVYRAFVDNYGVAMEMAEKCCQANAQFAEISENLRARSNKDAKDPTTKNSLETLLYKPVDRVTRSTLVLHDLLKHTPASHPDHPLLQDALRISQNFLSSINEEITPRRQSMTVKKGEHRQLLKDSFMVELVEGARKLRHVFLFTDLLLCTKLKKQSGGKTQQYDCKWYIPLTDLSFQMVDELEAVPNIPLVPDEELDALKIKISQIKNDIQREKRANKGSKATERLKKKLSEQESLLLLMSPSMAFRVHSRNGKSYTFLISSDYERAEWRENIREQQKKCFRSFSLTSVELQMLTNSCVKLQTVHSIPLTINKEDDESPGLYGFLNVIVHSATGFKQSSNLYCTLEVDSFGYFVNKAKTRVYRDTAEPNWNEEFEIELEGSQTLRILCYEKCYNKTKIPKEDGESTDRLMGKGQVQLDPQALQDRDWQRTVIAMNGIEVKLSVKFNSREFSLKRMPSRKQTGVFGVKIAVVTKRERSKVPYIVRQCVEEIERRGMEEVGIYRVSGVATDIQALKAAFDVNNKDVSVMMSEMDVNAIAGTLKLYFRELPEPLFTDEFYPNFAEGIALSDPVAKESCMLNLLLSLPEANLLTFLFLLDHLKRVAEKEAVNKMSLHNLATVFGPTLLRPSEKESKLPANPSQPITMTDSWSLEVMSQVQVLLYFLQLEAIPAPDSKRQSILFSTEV

SMILES	IC50 [1]	IC50 [2]	IC50 [3]
COc1ccc(Nc2cc(-c3ccc(C(=O)NCCNC(=O)c4cccc(C(F)(F)F)c4)cc3)ncn2)cc1	2.59 µM	65.3 µM	
COc1ccc(Nc2cc(-c3ccc(C(=O)NCCNC(=O)c4cccc(OC)c4)cc3)ncn2)cc1	8.53 µM	11.2 µM	
COc1ccc(Nc2cc(-c3ccc(C(=O)NCCNC(=O)c4ccccc4C)cc3)ncn2)cc1	14.5 µM	38.5 µM	
COc1ccc(Nc2cc(-c3ccc(C(=O)NCCNC(=O)c4ccc(C(C)(C)C)cc4)cc3)ncn2)cc1	> 100 µM	0.83 µM	
COc1ccc(Nc2cc(-c3ccc(C(=O)NCCNC(=O)c4cccc(N(C)C)c4)cc3)ncn2)cc1	9.25 µM	0.85 µM	
COc1ccc(Nc2cc(-c3ccc(C(=O)NCCNC(=O)c4cccc(F)c4)cc3)ncn2)cc1	11.3 µM	33.9 µM	
COc1ccc(Nc2cc(-c3ccc(C(=O)NCCNC(=O)c4ccccc4Cl)cc3)ncn2)cc1	9.24 µM	0.64 µM	
COc1ccc(Nc2cc(-c3ccc(C(=O)NCCNC(=O)c4ccc(F)cc4)cc3)ncn2)cc1		10.9 µM	
COc1ccc(Nc2cc(-c3ccc(C(=O)NCCNC(=O)c4ccc(F)c(F)c4)cc3)ncn2)cc1	4.4 µM	6.2 µM	
COc1ccc(Nc2cc(-c3ccc(C(=O)NCCNC(=O)c4c(F)cccc4Cl)cc3)ncn2)cc1	6.2 µM	8.5 µM	
COc1ccc(Nc2cc(-c3ccc(C(=O)N4CCN(C(=O)c5ccccc5F)CC4)cc3)ncn2)cc1	8.96 µM	8.96 µM	
COc1ccc(Nc2cc(-c3ccc(C(=O)N4CCN(C(=O)c5ccccc5Cl)CC4)cc3)ncn2)cc1		73.9 µM	
COc1ccc(Nc2cc(-c3ccc(C(=O)N4CCN(C(=O)c5ccc(F)cc5)CC4)cc3)ncn2)cc1	0.017 µM	35.7 µM	
COc1ccc(Nc2cc(-c3ccc(C(=O)N4CCN(C(=O)c5ccc(OC)cc5)CC4)cc3)ncn2)cc1	> 100 µM	> 100 µM	
COc1ccc(Nc2cc(-c3ccc(C(=O)N4CCN(C(=O)c5cccc(F)c5)CC4)cc3)ncn2)cc1		42.2 µM	
COc1ccc(Nc2cc(-c3ccc(C(=O)N4CCN(C(=O)c5ccc(Cl)cc5Cl)CC4)cc3)ncn2)cc1		35 µM	35 µM
COc1ccc(Nc2cc(-c3ccc(C(=O)N4CCN(C(=O)c5ccc(F)c(F)c5)CC4)cc3)ncn2)cc1		15.3 µM	15.3 µM
COc1ccc(Nc2cc(-c3ccc(C(=O)N4CCN(C(=O)c5cccc(C(F)(F)F)c5)CC4)cc3)ncn2)cc1		51.9 µM	51.9 µM
COc1ccc(Nc2cc(-c3ccc(C(=O)N4CCN(C(=O)c5cccc(C)c5)CC4)cc3)ncn2)cc1	> 100 µM	> 100 µM	
COc1ccc(Nc2cc(-c3ccc(C(=O)N4CCN(C(=O)c5cccc(N(C)C)c5)CC4)cc3)ncn2)cc1		> 100 µM	> 100 µM
